These results are taken from patent US12613179B2, “Label-free electrical monitoring of cell aggregates” (NANYANG TECHNOLOGICAL UNIVERSITY, priority 2020, dated 2026).

This assay relates to cell aggregates modelling cancer tumoroids. Kind of assay: drug susceptibility testing of cell aggregates by EIS-based electrical signatures and optical microscopy. Here is the method:
In another set of experiments, the method of the present disclosure is shown to be useful in the continuous monitoring of the physiological and/or morphological changes of cell aggregates in drug susceptibility testing. Paclitaxel (PTX), a common anti-cancer drug for several types of cancers, was provided at different concentrations ranging from 0 nM (nanoMole) to 500 nM to cultures of cell aggregates modelling cancer tumoroids and observed over a period of 24 hours. […] Based on optical microscopy, it can be appreciated that there are hardly any distinguishable differences between the cell aggregate image at 100 nM of PTX and the cell aggregate images at 200 nM PTX or 500 nM PTX. […] Conventionally, it would have required testing the extracellular environment for metabolites to determine such a change. In contrast, by considering the two EIS-based electrical signatures of electrical size and opacity, more information on the effect of drug treatment can be determined. […] The two EIS-based electrical signatures together are able to indicate that the physiological state of the cells undergo substantive changes only after the drug concentration is raised to 500 nM. This is consistent with what is known of the drug treatment modelled in these experiments, and validates the usefulness of the EIS-based electrical signatures in monitoring physiological and/or morphological changes in 3D cell aggregates.

On to `CC(=O)O[C@H]1C(=O)[C@@]2(C)[C@H]([C@H](OC(=O)c3ccccc3)[C@]3(O)C[C@H](OC(=O)[C@H](O)[C@@H](NC(=O)c4ccccc4)c4ccccc4)C(C)=C1C3(C)C)[C@]1(OC(C)=O)CO[C@@H]1C[C@@H]2O` [Paclitaxel], for which, under “100 nM PTX, 24 hours, FIG. 17A”, the “optical size of the cell aggregate (optical microscopy)” value is reported as “started to decrease”. For the same molecule, for the setting “500 nM PTX, observed over 24 hours, FIG. 17B, 0 nM control 300±41.8 μm”, the “electrical size of the cell aggregates” value came out at 281±40.3 μm. Moreover, the “opacity of the cell aggregates” value (drug concentration increased from 0 nM to 500 nM, 24 hours, FIG. 17C) was “remains relatively unchanged”.
